# Data from article PMC3894222 (PLoS Pathogens, 2014).
# Tests used:
# Sm5HTR [1] = biological target: T1, Sm5HTR (Schistosoma mansoni, UniProt G4V5G4); experiment: cAMP fluorescent competitive immunoassay, transfected HEK […] cells; type: cell-based; settings: 20 uM forskolin, IBMX pretreatment, 37 °C, 10 min
# T1 construct: gene 5HT-1; full length, 463 residues, 52 kDa; pCI-neo; transiently transfected HEK 293 cells
# T1 sequence (G4V5G4 1-463): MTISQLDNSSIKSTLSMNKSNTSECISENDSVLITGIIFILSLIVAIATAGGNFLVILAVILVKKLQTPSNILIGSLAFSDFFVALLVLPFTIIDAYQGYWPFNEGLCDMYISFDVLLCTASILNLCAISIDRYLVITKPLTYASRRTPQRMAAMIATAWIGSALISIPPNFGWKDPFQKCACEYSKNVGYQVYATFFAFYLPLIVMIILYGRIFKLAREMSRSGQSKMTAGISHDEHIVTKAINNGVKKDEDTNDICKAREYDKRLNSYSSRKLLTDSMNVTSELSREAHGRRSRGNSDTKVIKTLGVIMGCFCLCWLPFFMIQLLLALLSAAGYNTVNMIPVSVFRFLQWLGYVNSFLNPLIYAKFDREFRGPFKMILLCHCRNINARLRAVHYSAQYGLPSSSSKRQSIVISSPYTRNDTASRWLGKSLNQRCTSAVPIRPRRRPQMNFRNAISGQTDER
# Sm5HTR [2] = biological target: T1, Sm5HTR; experiment: as above; type: cell-based
# [3] = antagonist at 100 uM against 100 uM serotonin
Compound,"cAMP fluorescent competitive immunoassay, transfected HEK 293 cells (Sm5HTR [1]; agonist at 100 uM)","cAMP fluorescent competitive immunoassay, transfected HEK 293 cells (Sm5HTR [1]; [3])",also measured
"O=C1CC2(CCCC2)CC(=O)N1CCCCN1CCN(c2ncccn2)CC1 [BUS, buspirone]","classical (i.e. mammalian) serotonergic agonists such as tryptamine, DPAT and buspiperone",,
"CCCN(CCC)C1CCc2cccc(O)c2C1 (stereo not drawn) [DPAT, 8-Hydroxy-DPAT]","classical (i.e. mammalian) serotonergic agonists such as tryptamine, DPAT and buspiperone",,
"CN1CCN2c3ccccc3Cc3ccccc3C2C1 (stereo not drawn) [MIAN, mianserin]",,inhibited by co-application of common serotonergic antagonists such as cyproheptadine or mianserin,
"NCCc1c[nH]c2ccccc12 [Trp, tryptamine]","classical (i.e. mammalian) serotonergic agonists such as tryptamine, DPAT and buspiperone",,
"CN1CCC(=C2c3ccccc3C=Cc3ccccc32)CC1 [CPH, cyproheptadine]",,inhibited by co-application of common serotonergic antagonists such as cyproheptadine or mianserin,
"COc1ccc2[nH]cc(CCN)c2c1 [methyl-5HT, o-methyl-serotonin]",,,EC50 (Sm5HTR [2]): 72.2 nM
